Measured values reported in patent US20240116985A1, “STAPLED PEPTIDES AND METHODS THEREOF” (priority 2020, published 2024).
Values after ≈ are worked out from the molar mass of the structure shown. Where two headings read alike, the source gives them in different places. Starred links: 1 amine or outer side, 2 acyl side, 3 side chain; linkers in the order of their positions; H or OH if unused. Non-standard residues stand in square brackets, D forms with d. Residues, ends and D or L forms follow the SMILES beside them. X1 = C=CCOC(=O)N1CC[C@@](N[*:1])(C(=O)[*:2])C1; X2 = C=CCCCC(CCCC=C)(N[*:1])C(=O)[*:2]; Bta = N[C@@H](Cc1csc2ccccc12)C(=O)O; αAllylPro = C=CC[C@@]1(C(=O)O)CCCN1; R8 = C=CCCCCCC[C@@](C)(N)C(=O)O; S8 = C=CCCCCCC[C@](C)(N)C(=O)O

Assays:
Solubility in PBS = assay type: physicochemical
In short: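 HPLC quantitation of peptide remaining in the PBS supernatant after ultracentrifugation, referenced to a 50 μM solution in DMSO.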

CHI Log D procedure = assay type: physicochemical; settings: for CHI Log D: pH 7.4; for chromatographic logD / logD: pH 7.4, CHI Log D

| SMILES | Solubility (Solubility in PBS) [µM] | CHI Log D (CHI Log D procedure) | further results |
| --- | --- | --- | --- |
| CC(=O)N1CCC[C@]12CC=CCCCC1(CCCC=CCCCCCC[C@@](C)(C(=O)N[C@@H](Cc3ccccc3)C(=O)N[C@@H](Cc3csc4ccccc34)C(=O)N[C@@H](CCC(N)=O)C(N)=O)NC(=O)[C@H](CC(N)=O)NC(=O)[C@H](Cc3ccccc3)NC(=O)[C@H](C)NC(=O)[C@H](C)NC(=O)[C@H](CCC(=O)O)NC(=O)[C@H](CNS(C)(=O)=O)NC1=O)NC(=O)[C@H](C)NC(=O)[C@H](CC(=O)O)NC2=O (stereo partly drawn) [I-529, Ac-PL3-Asp-Ala-B5-[MeSO2]Dap-Glu-Ala-Ala-Phe-Asn-S8-Phe-BztA-Gln-NH2] | 50 (≈ 93.8 µg/mL) | 2.854 | – |
| CC(=O)N1CCC[C@]12CC=CCCCC1(CCCC=CCCCCCC[C@@](C)(C(=O)N[C@@H](Cc3ccccc3)C(=O)N[C@@H](Cc3csc4ccccc34)C(=O)N[C@@H](CCC(N)=O)C(N)=O)NC(=O)[C@H](CC(N)=O)NC(=O)[C@H](Cc3ccccc3)NC(=O)[C@H](C)NC(=O)[C@H](C)NC(=O)[C@H](CCC(=O)O)NC(=O)[C@H](CNS(C)(=O)=O)NC1=O)NC(=O)[C@H](C)NC(=O)[C@H](CC(=O)O)NC2=O (stereo partly drawn) [I-530, Ac-PL3-Asp-Ala-B5-[MeSO2]Dap-Glu-Ala-Ala-Phe-Asn-S8-Phe-BztA-Gln-NH2] | 50 (≈ 93.8 µg/mL) | 2.935 | – |
| CC(=O)N1CCC[C@]12CC=CCCCC1(CCCC=CCCCCCC[C@@](C)(C(=O)N[C@@H](Cc3ccccc3)C(=O)N[C@@H](Cc3csc4ccccc34)C(=O)N[C@@H](CCC(N)=O)C(N)=O)NC(=O)[C@H](CC(N)=O)NC(=O)[C@H](Cc3ccccc3)NC(=O)[C@H](C)NC(=O)[C@H](C)NC(=O)[C@H](CCC(=O)O)NC(=O)[C@H](CCNS(C)(=O)=O)NC1=O)NC(=O)[C@H](C)NC(=O)[C@H](CC(=O)O)NC2=O (stereo partly drawn) [I-531, Ac-PL3-Asp-Ala-B5-[MeSO2]Dab-Glu-Ala-Ala-Phe-Asn-S8-Phe-BztA-Gln-NH2] | 43 (≈ 81.3 µg/mL) | 2.794 | – |
| CC(=O)N1CCC[C@]12CC=CCCCC1(CCCC=CCCCCCC[C@@](C)(C(=O)N[C@@H](Cc3ccccc3)C(=O)N[C@@H](Cc3csc4ccccc34)C(=O)N[C@@H](CCC(N)=O)C(N)=O)NC(=O)[C@H](CC(N)=O)NC(=O)[C@H](Cc3ccccc3)NC(=O)[C@H](C)NC(=O)[C@H](C)NC(=O)[C@H](CCC(=O)O)NC(=O)[C@H](CCNS(C)(=O)=O)NC1=O)NC(=O)[C@H](C)NC(=O)[C@H](CC(=O)O)NC2=O (stereo partly drawn) [I-532, Ac-PL3-Asp-Ala-B5-[MeSO2]Dab-Glu-Ala-Ala-Phe-Asn-S8-Phe-BztA-Gln-NH2] | 42 (≈ 79.4 µg/mL) | 2.858 | – |
| C=CCCCCCC[C@](C)(NC(=O)[C@H](CCC(N)=O)NC(=O)[C@H](Cc1ccccc1)NC(=O)[C@H](C)NC(=O)[C@H](C)NC(=O)[C@H](CC(=O)O)NC(=O)[C@H](CC(=O)O)NC(=O)C(CCCC=C)(CCCC=C)NC(=O)[C@H](C)NC(=O)[C@H](CC(=O)O)NC(=O)[C@]1(CC=C)CCCN1C(C)=O)C(=O)N[C@@H](Cc1ccccc1)C(=O)N[C@@H](Cc1csc2ccccc12)C(=O)N[C@@H](CCC(N)=O)C(N)=O [I-578, Ac-PL3-Asp-Ala-B5-Asp-Asp-Ala-Ala-Phe-Gln-S8-Phe-BztA-Gln-NH2] (Ac-[αAllylPro]DA[X2]DDAAFQ[S8]F[Bta]Q-NH2) | 50 (≈ 94.2 µg/mL) | – | chromatographic logD (CHI Log D procedure): 2.26 |
| C=CCCCCCC[C@@](C)(NC(=O)[C@H](C)NC(=O)[C@H](CC(=O)O)NC(=O)[C@H](Cc1ccccc1)NC(C)=O)C(=O)N[C@@H](CC(=O)O)C(=O)N[C@@H](CC(=O)O)C(=O)N[C@@H](C)C(=O)N[C@@H](C)C(=O)N[C@@H](Cc1ccccc1)C(=O)N[C@@H](CCC(N)=O)C(=O)N[C@@]1(C(=O)N[C@@H](Cc2ccccc2)C(=O)N[C@@H](Cc2c[nH]c3ccccc23)C(=O)N[C@@H](CCC(N)=O)C(N)=O)CCN(C(=O)OCC=C)C1 [I-579, Ac-Phe-Asp-Ala-R8-Asp-Asp-Ala-Ala-Phe-Gln-PyrS-Phe-Trp-Gln-NH2] (Ac-FDA[R8]DDAAFQ[X1]FWQ-NH2) | – | – | solubility at 15 min (Solubility in PBS; Solubility (uM)): 45 µM (≈ 84.6 µg/mL); chromatographic logD (CHI Log D procedure): 1.51 |
| CC[C@H](C)[C@@H]1NC(=O)[C@H](CC(=O)O)NC(=O)[C@]2(CC=CCCCC3(CCCC=CCCCCCC[C@@](C)(C(=O)N[C@@H](Cc4ccccc4)C(=O)N[C@@H](Cc4ccccc4)C(=O)N[C@@H](CCC(N)=O)C(N)=O)NC(=O)[C@H](CCC(N)=O)NC(=O)[C@H](Cc4csc5ccccc45)NC(=O)[C@H](C)NC(=O)[C@H](C)NC(=O)[C@H](CCC(=O)O)NC(=O)[C@H](CC(=O)O)NC3=O)NC1=O)CCCN2C(C)=O (stereo partly drawn) [I-585, Ac-PL3-Asp-Ile-B5-Asp-Glu-Ala-Ala-BztA-Gln-S8-Phe-Phe-Gln-NH2] | 50 (≈ 94.2 µg/mL) | 2.364 | – |
| CC[C@H](C)[C@@H]1NC(=O)[C@H](CC(=O)O)NC(=O)[C@]2(CC=CCCCC3(CCCC=CCCCCCC[C@@](C)(C(=O)N[C@@H](Cc4ccccc4)C(=O)N[C@@H](Cc4ccccc4)C(=O)N[C@@H](CCC(N)=O)C(N)=O)NC(=O)[C@H](CCC(N)=O)NC(=O)[C@H](Cc4csc5ccccc45)NC(=O)[C@H](C)NC(=O)[C@H](C)NC(=O)[C@H](CCC(=O)O)NC(=O)[C@H](CC(=O)O)NC3=O)NC1=O)CCCN2C(C)=O (stereo partly drawn) [I-586, Ac-PL3-Asp-Ile-B5-Asp-Glu-Ala-Ala-BztA-Gln-S8-Phe-Phe-Gln-NH2] | 50 (≈ 94.2 µg/mL) | 2.39 | – |
| CC[C@H](C)[C@@H]1NC(=O)[C@H](CC(=O)O)NC(=O)[C@]2(CC=CCCCC3(CCCC=CCCCCCC[C@@](C)(C(=O)N[C@@H](CC(=O)O)C(=O)N[C@@H](Cc4csc5ccccc45)C(=O)N[C@@H](CCC(N)=O)C(N)=O)NC(=O)[C@H](CCC(N)=O)NC(=O)[C@H](Cc4ccccc4)NC(=O)[C@H](C)NC(=O)[C@H](C)NC(=O)[C@H](CCC(=O)O)NC(=O)[C@H](Cc4ccccc4)NC3=O)NC1=O)CCCN2C(C)=O (stereo partly drawn) [I-587, Ac-PL3-Asp-Ile-B5-Phe-Glu-Ala-Ala-Phe-Gln-S8-Asp-BztA-Gln-NH2] | 50 (≈ 94.2 µg/mL) | – | chromatographic logD (CHI Log D procedure): 2.15 |
| CC[C@H](C)[C@@H]1NC(=O)[C@H](Cc2ccccc2)NC(=O)[C@]2(CC=CCCCC3(CCCC=CCCCCCC[C@@](C)(C(=O)N[C@@H](Cc4ccccc4)C(=O)N[C@@H](Cc4csc5ccccc45)C(=O)N[C@@H](CCC(N)=O)C(N)=O)NC(=O)[C@H](CCC(N)=O)NC(=O)[C@H](CC(=O)O)NC(=O)[C@H](C)NC(=O)[C@H](C)NC(=O)[C@H](CCC(=O)O)NC(=O)[C@H](CC(=O)O)NC3=O)NC1=O)CCCN2C(C)=O (stereo partly drawn) [I-588, Ac-PL3-Phe-Ile-B5-Asp-Glu-Ala-Ala-Asp-Gln-S8-Phe-BztA-Gln-NH2] | – | – | solubility at 15 min (Solubility in PBS; Solubility (uM)): 49 µM (≈ 92.3 µg/mL); chromatographic logD (CHI Log D procedure): 2.87 |
| CC(=O)N1CCC[C@]12CC=CCCCC1(CCCC=CCCCCCC[C@@](C)(C(=O)N[C@@H](Cc3ccccc3)C(=O)N[C@@H](Cc3csc4ccccc34)C(N)=O)NC(=O)[C@H](CC(N)=O)NC(=O)[C@H](Cc3ccccc3)NC(=O)[C@H](C)NC(=O)[C@H](C)NC(=O)[C@H](CCC(=O)O)NC(=O)[C@H](CC(=O)O)NC1=O)NC(=O)[C@H](CC1CCCCC1)NC(=O)[C@H](CC(=O)O)NC2=O (stereo partly drawn) [I-626, Ac-PL3-Asp-Cha-B5-Asp-Glu-Ala-Ala-Phe-Asn-S8-Phe-BztA-NH2] | 50 (≈ 89.1 µg/mL) | 2.048 | – |
| CC[C@H](C)[C@@H]1NC(=O)[C@H](CC(=O)O)NC(=O)[C@]2(CC=CCCCC3(CCCC=CCCCCCC[C@@](C)(C(=O)N[C@@H](Cc4ccccc4)C(=O)N[C@@H](Cc4csc5ccccc45)C(=O)N4CCC[C@H]4C(N)=O)NC(=O)[C@H](CCC(N)=O)NC(=O)[C@H](Cc4ccccc4)NC(=O)[C@H](C)NC(=O)[C@H](C)NC(=O)[C@H](CCC(=O)O)NC(=O)[C@H](CC(=O)O)NC3=O)NC1=O)CCCN2C(C)=O (stereo partly drawn) [I-637, Ac-PL3-Asp-Ile-B5-Asp-Glu-Ala-Ala-Phe-Gln-S8-Phe-BztA-Pro-NH2] | 50 (≈ 92.6 µg/mL) | 2.554 | – |
| CC(=O)N1CCC[C@]12CC=CCCCC1(CCCC=CCCCOC(=O)N3CC[C@@](C(=O)N[C@@H](Cc4ccsc4)C(=O)N[C@@H](Cc4csc5ccccc45)C(=O)N[C@@H](Cc4c[nH]cn4)C(N)=O)(C3)NC(=O)[C@H](CC(N)=O)NC(=O)[C@H](Cc3ccccc3)NC(=O)[C@H](C)NC(=O)[C@H](CCCCNC(=O)Cn3cc(CNC(=O)c4ccc5c(c4)C4(OC5=O)c5ccc(O)cc5Oc5cc(O)ccc54)nn3)NC(=O)[C@H](CC(=O)O)NC(=O)[C@H](CC(=O)O)NC1=O)NC(=O)[C@H](CC(C)(C)C)NC(=O)[C@H](CC(=O)O)NC2=O (stereo partly drawn) [I-865, Ac-PL3-Asp-Npg-B5-Asp-Asp-[FAM6Ppg][1TriAc]Lys-Ala-Phe-Asn-PyrS2-3Thi-BztA-His-NH2] | – | – | Solubility (Solubility in PBS; Solubility (uM)): 38 µM (≈ 94.3 µg/mL); logD (CHI Log D procedure): 1.62 |
| CC(=O)N1CCC[C@]12CC=CCCCC1(CCCC=CCCCOC(=O)N3CC[C@@](C(=O)N[C@@H](Cc4ccsc4)C(=O)N[C@@H](Cc4csc5ccccc45)C(=O)N[C@@H](CCC(N)=O)C(N)=O)(C3)NC(=O)[C@H](CC(N)=O)NC(=O)[C@H](Cc3ccccc3)NC(=O)[C@H](C)NC(=O)[C@H](CCCCNC(=O)c3ccc(-n4cc(CNC(=O)c5ccc6c(c5)C5(OC6=O)c6ccc(O)cc6Oc6cc(O)ccc65)nn4)cc3)NC(=O)[C@H](CC(C)C)NC(=O)[C@H](CC(=O)O)NC1=O)NC(=O)[C@H](CC(C)(C)C)NC(=O)[C@H](CC(=O)O)NC2=O (stereo partly drawn) [I-867, Ac-PL3-Asp-Npg-B5-Asp-Leu-[FAM6Ppg][p1TB]Lys-Ala-Phe-Asn-PyrS2-3Thi-BztA-Gln-NH2] | – | – | Solubility (Solubility in PBS; Solubility (uM)): 13 µM (≈ 32.9 µg/mL); logD (CHI Log D procedure): 1.8 |
| CC(=O)N1CCC[C@]12CC=CCCCC1(CCCC=CCCCOC(=O)N3CC[C@@](C(=O)N[C@@H](Cc4ccsc4)C(=O)N[C@@H](Cc4csc5ccccc45)C(=O)N[C@@H](CCC(N)=O)C(N)=O)(C3)NC(=O)[C@H](CC(C)C)NC(=O)[C@H](Cc3ccccc3)NC(=O)[C@H](C)NC(=O)[C@H](CCCCNC(=O)c3ccc(-n4cc(CNC(=O)c5ccc6c(c5)C5(OC6=O)c6ccc(O)cc6Oc6cc(O)ccc65)nn4)cc3)NC(=O)[C@H](CC(C)C)NC(=O)[C@H](CC(=O)O)NC1=O)NC(=O)[C@H](CC(C)(C)C)NC(=O)[C@H](CC(=O)O)NC2=O (stereo partly drawn) [I-868, Ac-PL3-Asp-Npg-B5-Asp-Leu-[FAM6Ppg][p1TB]Lys-Ala-Phe-Leu-PyrS2-3Thi-BztA-Gln-NH2] | 10 (≈ 25.3 µg/mL) | – | logD (CHI Log D procedure): 1.88 |
